Measurements taken from patent US9238602B1, “Process for the preparation of cis-2,2,4,4-tetramethylcyclobutane-1,3-diol” (Eastman Chemical Company, priority 2014, dated 2016).

Experiment: cis/trans 2,2,4,4-tetramethylcyclobutane-1,3-diol solubility ratio (cis isomer solubility limit divided by trans isomer solubility limit)
Assay type: physicochemical
Description: The definition of cis/trans 2,2,4,4-tetramethylcyclobutane-1,3-diol solubility ratio is also known to one of ordinary skill in the art; in one embodiment, the cis/trans 2,2,4,4-tetramethylcyclobutane-1,3-diol solubility ratio can be defined as the ratio of the cis isomer solubility limit divided by the trans isomer solubility limit at a given temperature for a given solvent or solvents. For example, the cis/trans solubility ratio in water at 80° C. is about 1.0. For MIBC, the cis/trans solubility ratio at 80° C. is about 0.74.

cis/trans solubility ratio (in MIBC (methyl isobutyl carbinol) at 80° C.): about 0.74
cis/trans solubility ratio (in water at 80° C.): about 1.0
SMILES: CC1(C)C(O)C(C)(C)C1O (centres unmarked) [2,2,4,4-tetramethylcyclobutane-1,3-diol]
